Tests used:
[1] = system: OCI-LY10 cells; test: CellTiter-Glo Luminescent Cell Viability Assay; assay type: cell-based; settings: Homo sapiens, 96 h, incubated 4 days, read-out: OCI-LY10 CTG IC50
Method: Compound-mediated viability effect on OCI-LY10 was quantitatively determined using the CellTiter-Glo® Luminescent Cell Viability Assay kit from Promega (Catalog number G7570) following manufacturer's recommended procedures. Briefly, OCI-LY10 cells were seeded into 384 well plates (Grenier Bio-One, Catalog number 781080) with a density of 10,000 cells per well. Compounds were then added to the assay plate with final top concentration of 10 μM and 1:3 dilution series with total of 9 doses. The final DMSO concentration was normalized to 0.2%. The assay plates were incubated at 37° C. for 4 days under 5% CO2. Then the assay plate was equilibrated at room temperature for 10 minutes. To determine cell viability, 30 μL CellTiter Glo reagent was added to each well and the assay plate was centrifuged at 1000 rpm for 30 second, incubated at room temperature for 10 min, and analyzed by detecting the luminescence using a multimode plate reader (EnVision 2105, PerkinElmer). The data was then analyzed by software Prism 7.0 from GraphPad and the dose response curves were fit using a three-parameter logistic equation to calculate IC50.
The letter codes for OCI-LY10 CTG IC50 include: A (<1 μM), B (1-10 μM), C (>10 μM).

[2] = target: T1, IRAK4 (Homo sapiens, UniProt Q9NWZ3); test: OCI-LY10 IRAK MSD assay DC50 (IRAK4 degradation); assay type: cell-based; settings: OCI-Ly10 cells, incubated for 4 hr, concentration of compound required to degrade 50% of protein
T1 construct: endogenous in cells; host or cells: OCI-Ly10
T1 sequence (Q9NWZ3 1-460): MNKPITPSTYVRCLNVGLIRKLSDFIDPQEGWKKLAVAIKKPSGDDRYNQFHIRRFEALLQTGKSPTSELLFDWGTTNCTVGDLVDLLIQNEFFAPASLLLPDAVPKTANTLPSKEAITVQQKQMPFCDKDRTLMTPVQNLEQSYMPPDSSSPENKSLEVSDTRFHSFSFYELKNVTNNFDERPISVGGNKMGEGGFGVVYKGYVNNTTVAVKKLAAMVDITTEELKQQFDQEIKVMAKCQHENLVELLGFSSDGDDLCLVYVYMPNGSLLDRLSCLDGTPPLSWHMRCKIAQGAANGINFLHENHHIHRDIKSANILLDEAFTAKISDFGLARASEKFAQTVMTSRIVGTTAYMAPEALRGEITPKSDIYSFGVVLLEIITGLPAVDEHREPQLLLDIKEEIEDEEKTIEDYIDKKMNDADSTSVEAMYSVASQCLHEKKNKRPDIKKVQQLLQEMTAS
Method: A MSD assay is run to determine the concentration of compound required to degrade 50% of protein (DC50).
• Compounds were reconstituted to 10 mM in stock solutions. The stock solutions were diluted to 5 mM and 45 μL of each dilution was transferred to a 384 pp-plate. A 3 fold, 8-point serial dilution was performed by transferring 15 μL of compound into 30 μL DMSO using Janus. • 20 nL of each compound were added into each well of a 96-well plate (Corning3799). • OCI-Ly10 cells were seeded into the 96-well plate at 3.0*10e^5 cells/100 μL/well. • The cell plate was shaken at 720 rpm for 5 min and incubated for 4 hr. • 100 μL of cells were transferred into the 96-PCR plate and spun down at high speed for 5 mins. • The supernatant was discarded and 100 μL of RIPA lysis buffer with proteinase inhibitors was added per well. The plate was then sealed and shaken at 600 rpm and 4° C. for about 20 min. • The plate was then spun down at high speed (about 3200 g) for 30 min and then frozen in a −80° C. fridge. • A bare MSD plate (L15XA-3) was coated with 2 μg/mL of capture antibody (mouse Anti-IRAK4 antibody [2H9], ab119942) in PBS to 40 μL/well and incubated overnight at 4° C.
• The MSD coated plate was washed 3× (150 μL/well) with 1×TBST (CST #9997S). • The MSD plate was then blocked with 150 μL of blocking buffer [3% Blocker A (MSD, R93BA-4) in TBST]/well and shaken for 1 hr at RT and 600 rpm. • The MSD plate was washed 3× (150 μL/well) with 1×TBST. The sample RIPA lysates were then added to the MSD plate (50 μL/well) and shaken for 1 hr at RT and 600 rpm. • The MSD plate was washed 3× (150 μL/well) with 1×TBST and the primary detection antibody (Rabbit Anti-IRAK4 antibody [Y279], ab32511) was added to a final concentration of 1 μg/ml with 25 μL/well. The plate was then shaken for 1 hr at RT and 600 rpm. • The MSD plate was washed 3× (150 μL/well) with 1×TBST and the secondary detection antibody, SULFO-TAG anti-species antibody (Anti Rabbit Antibody (R32AB-5) MSD, R32AB-1) was added to a volume of 25 μL/well at a final concentration of 1 μg/ml. The plate was then shaken for 1 hr at RT and 600 rpm. • The MSD plate was then washed 3× (150 μL/well) with 1×TBST. • 1×MSD reading buffer was then added (150 μL/well) and the plate […].
(MSD, R92TC-2) • The MSD instrument was then read.
The remaining activity was calculated following the formula below:
• The DC50 was calculated by fitting the Curve using Xlfit (v5.3.1.3), equation 201: […]
The letter codes for IRAK4 DC50 indicate the concentration of compound required to degrade 50% of protein: A (<0.01 μM), B (0.01-0.1 μM), C (>0.1-0.2 μM), D (>0.2 μM).

| SMILES | IC50 [1] | DC50 [2] |
| --- | --- | --- |
| CN(C[C@H]1CC[C@H](n2cc3cc(NC(=O)c4cccc(C(F)(F)F)n4)c(C(C)(C)O)cc3n2)CC1)C1CCN(c2ccn3c(N4CCC(=O)NC4=O)cnc3c2)CC1 [I-1] | 1000 to 10000 nM | < 10 nM |
| CC(C)(O)c1cc2nn([C@H]3CC[C@H](CC4CCN(c5ccn6c(N7CCC(=O)NC7=O)cnc6c5)CC4)CC3)cc2cc1NC(=O)c1cccc(C(F)(F)F)n1 [I-2] | 1000 to 10000 nM | < 10 nM |
| O=C1CCN(c2cnc3cc(C#CCOC4CCN(C[C@H]5CC[C@H](n6cc(NC(=O)c7cnn8ccc(N9C[C@H]%10C[C@@H]9CO%10)nc78)c(C(F)F)n6)CC5)CC4)ccn23)C(=O)N1 [I-3] | 1000 to 10000 nM | < 10 nM |
| CN(C[C@H]1CC[C@H](n2cc3cc(NC(=O)c4cccc(C(F)(F)F)n4)c(C(C)(C)O)cc3n2)CC1)C1CCN(c2ccc3c(N4CCC(=O)NC4=O)cncc3c2)CC1 [I-5] | 1000 to 10000 nM | – |
| CC(C)(O)c1cc2nn([C@H]3CC[C@H](CN4CCC(c5ccc6c(N7CCC(=O)NC7=O)cncc6c5)CC4)CC3)cc2cc1NC(=O)c1cccc(C(F)(F)F)n1 [I-6] | 1000 to 10000 nM | – |
| CN(C[C@H]1CC[C@H](n2cc3cc(NC(=O)c4cccc(C(F)(F)F)n4)c(C(C)(C)O)cc3n2)CC1)C1CCN(c2cccc3c(N4CCC(=O)NC4=O)cncc23)CC1 [I-7] | > 10000 nM | – |
| N#Cc1cnc2c(C(=O)Nc3ccc4nn([C@H]5CC[C@H](CN6CCC(c7cccn8c(N9CCC(=O)NC9=O)cnc78)CC6)CC5)cc4c3)cnn2c1 [I-65, 6-Cyano-N-[2-[4-[[4-[3-(2,4-dioxohexahydropyrimidin-1-yl)imidazo[1,2-a]pyridin-8-yl]-1-piperidyl]methyl]cyclohexyl]indazol-5-yl]pyrazolo[1,5-a]pyrimidine-3-carboxamide] | – | 10 to 100 nM |
| N#Cc1cc2nn([C@H]3CC[C@H](CN4CCC(c5cccn6c(N7CCC(=O)NC7=O)cnc56)CC4)CC3)cc2cc1NC(=O)c1cccc(C(F)(F)F)n1 [I-67] | – | < 10 nM |
| COc1cc2nn([C@H]3CC[C@H](CN4CCN(c5cccn6c(N7CCC(=O)NC7=O)cnc56)CC4)CC3)cc2cc1NC(=O)c1cccc(C(F)(F)F)n1 [I-69] | – | < 10 nM |
| O=C1CCN(c2cnc3cc(C#CCO[C@@H]4CCN(C[C@H]5CC[C@H](n6cc(NC(=O)c7cnn8ccc(N9C[C@H]%10C[C@@H]9CO%10)nc78)c(C(F)F)n6)CC5)C[C@@H]4F)ccn23)C(=O)N1 [I-70] | – | < 10 nM |
| O=C1CCN(c2cnc3cc(C#CCO[C@H]4CCN(C[C@H]5CC[C@H](n6cc(NC(=O)c7cnn8ccc(N9C[C@H]%10C[C@@H]9CO%10)nc78)c(C(F)F)n6)CC5)C[C@H]4F)ccn23)C(=O)N1 [I-71] | – | < 10 nM |
| CC(C)Nc1cc(-c2ccc3cc(C#N)cnn23)ncc1C(=O)N[C@H]1CC[C@H](CN2CCC(c3cccn4c(N5CCC(=O)NC5=O)cnc34)CC2)CC1 [I-73] | – | 10 to 100 nM |
| CC(C)Nc1cc(-c2ccc3cc(C#N)cnn23)ncc1C(=O)N[C@H]1CC[C@H](CN2CCC(c3ccn4c(N5CCC(=O)NC5=O)cnc4c3)CC2)CC1 [I-74] | – | 10 to 100 nM |
| O=C1CCN(c2cnc3cc(C#CCN4CCN(C[C@H]5CC[C@H](n6cc(NC(=O)c7cnn8ccc(N9C[C@H]%10C[C@@H]9CO%10)nc78)c(C(F)F)n6)CC5)CC4)ccn23)C(=O)N1 [I-75] | – | < 10 nM |
| CC(C)Nc1cc(-n2ccc3cc(C#N)cnc32)ncc1C(=O)N[C@H]1CC[C@H](CN2CCC(c3cccn4c(N5CCC(=O)NC5=O)cnc34)CC2)CC1 [I-76] | – | 10 to 100 nM |
| CC(C)Nc1cc(-n2ccc3cc(C#N)cnc32)ncc1C(=O)N[C@H]1CC[C@H](CN2CCC(c3ccn4c(N5CCC(=O)NC5=O)cnc4c3)CC2)CC1 [I-77] | – | 10 to 100 nM |
| COc1cc2nc([C@H]3CC[C@H](CN4CCC(c5cccn6c(N7CCC(=O)NC7=O)cnc56)CC4)CC3)sc2cc1NC(=O)c1cccc(C(F)(F)F)n1 [I-79] | – | < 10 nM |
| COc1cc2nc([C@H]3CC[C@H](CN(C)C4CCN(c5ccn6c(N7CCC(=O)NC7=O)cnc6c5)CC4)CC3)sc2cc1NC(=O)c1cccc(C(F)(F)F)n1 [I-80] | – | 10 to 100 nM |
| O=C1CCN(c2cnc3cc(C4CCN(C[C@H]5C[C@H](n6cc7cc(NC(=O)c8cccc(C(F)(F)F)n8)ccc7n6)C5)CC4)ccn23)C(=O)N1 [I-85] | – | > 200 nM |

Now from value to compound:

| IC50 [1] | DC50 [2] | SMILES |
| --- | --- | --- |
| < 1000 nM | – | COc1cc2nn([C@H]3CC[C@H](CN4CCC(c5ccc6c(N7CCC(=O)NC7=O)cncc6c5)CC4)CC3)cc2cc1NC(=O)c1cccc(C(F)(F)F)n1 [I-17] |
| – | < 10 nM | N#Cc1cc2nn([C@H]3CC[C@H](CN4CCC(c5ccn6c(N7CCC(=O)NC7=O)cnc6c5)CC4)CC3)cc2cc1NC(=O)c1cccc(C(F)(F)F)n1 [I-66] |
| – | < 10 nM | COc1cc2nn([C@H]3CC[C@H](CN4CCN(c5ccn6c(N7CCC(=O)NC7=O)cnc6c5)CC4)CC3)cc2cc1NC(=O)c1cccc(C(F)(F)F)n1 [I-68] |
| – | > 200 nM | N#Cc1cnc2c(C(=O)Nc3ccc4nn([C@H]5CC[C@H](CN6CCC(c7ccn8c(N9CCC(=O)NC9=O)cnc8c7)CC6)CC5)cc4c3)cnn2c1 [I-72] |
| – | 10 to 100 nM | COc1cc2nc([C@H]3CC[C@H](CN4CCC(c5ccn6c(N7CCC(=O)NC7=O)cnc6c5)CC4)CC3)sc2cc1NC(=O)c1cccc(C(F)(F)F)n1 [I-78] |
| – | 10 to 100 nM | COc1cc2nn([C@H]3CC[C@H](CN4CCC(c5ccn6c(N7CCC(=O)NC7=O)cnc6c5)CC4)CC3)cc2cc1NC(=O)c1cc(F)cc(C(F)(F)F)c1 [I-81] |
| – | 10 to 100 nM | COc1cc2nn([C@H]3CC[C@H](CN4CCC(c5cccn6c(N7CCC(=O)NC7=O)cnc56)CC4)CC3)cc2cc1NC(=O)c1cc(F)cc(C(F)(F)F)c1 [I-82] |
| – | 100 to 200 nM | COc1cc2nn([C@H]3CC[C@H](CN4CCC(c5cccn6c(N7CCC(=O)NC7=O)cnc56)CC4)CC3)cc2cc1NC(=O)c1cncc(C#N)c1 [I-83] |
| – | > 200 nM | COc1cc2nn([C@H]3CC[C@H](CN4CCC(c5ccn6c(N7CCC(=O)NC7=O)cnc6c5)CC4)CC3)cc2cc1NC(=O)c1cncc(C#N)c1 [I-84] |
| – | 10 to 100 nM | COc1cc2nn([C@H]3CC[C@H](CN(C)C4CCN(c5ccn6c(N7CCC(=O)NC7=O)cnc6c5)CC4)CC3)cc2cc1NC(=O)c1cc(F)cc(C(F)(F)F)c1 [I-86] |
| – | 10 to 100 nM | COc1cc2nn([C@H]3CC[C@H](CN(C)C4CCN(c5ccn6c(N7CCC(=O)NC7=O)cnc6c5)CC4)CC3)cc2cc1NC(=O)c1cncc(Cl)c1 [I-87] |
| – | > 200 nM | COc1cc2nn([C@H]3CC[C@H](CN(C)C4CCN(c5cccn6c(N7CCC(=O)NC7=O)cnc56)CC4)CC3)cc2cc1NC(=O)c1cncc(Cl)c1 [I-88] |
